Reference: patent US8779004B2, “Stable emulsion formulations” (Amgen, Inc., priority 2006, dated 2014)

Experiment: Solubility of calcimimetics in oil phases (RP-HPLC)
Assay type: physicochemical
Conditions: oil or lipid, thermodynamic from solid
Protocol: The solubility measurements of the compounds were prepared by the addition of 1 g of drug substance to two milliliters of oil into a Wheaton 5 mL vial. The headspace was sparged with nitrogen, and enclosed with a West 4405/50 gray Teflon coated stopper and manually sealed by an aluminum overseal. The preparations were repeated again with the oils containing either purified egg or soy lecithin. All labeled vials were shaken at room temperature for eighteen hours on a platform shaker. After eighteen hours, the samples were diluted in mobile phase, and analyzed by the RP-HPLC method. Table 2 summarizes solubility results (expressed in mg/mL) of cinacalcet in various oil phases.

Compound: C[C@@H](NCCCc1cccc(C(F)(F)F)c1)c1cccc2ccccc12 [Cinacalcet, N-(1-(R)-(1-naphthyl)ethyl]-3-[3-(trifluoromethyl)phenyl]-1-aminopropane]
- solubility at 18 h (Long Chain Triglycerides (oil phase) with egg lecithin, Long Chain Triglycerides, Egg lecithin): > 362 mg/mL
- solubility at 18 h (Long Chain Triglycerides (oil phase) with soy lecithin, Long Chain Triglycerides, Soy lecithin): > 304 mg/mL
- solubility at 18 h (Long Chain Triglycerides (oil phase), Long Chain Triglycerides, no lecithin): > 340 mg/mL
- solubility at 18 h (Medium Chain Triglycerides (oil phase) with egg lecithin, Medium Chain Triglycerides, Egg lecithin): > 349 mg/mL
- solubility at 18 h (Medium Chain Triglycerides (oil phase) with soy lecithin, Medium Chain Triglycerides, Soy lecithin): > 327 mg/mL
- solubility at 18 h (Medium Chain Triglycerides (oil phase), Medium Chain Triglycerides, no lecithin): > 341 mg/mL
- solubility at 18 h (Structured Triglycerides (oil phase) with egg lecithin, Structured Triglycerides, Egg lecithin): > 339 mg/mL
- solubility at 18 h (Structured Triglycerides (oil phase) with soy lecithin, Structured Triglycerides, Soy lecithin): > 317 mg/mL
- solubility at 18 h (Structured Triglycerides (oil phase), Structured Triglycerides, no lecithin): > 368 mg/mL
